Experimental data published in patent publication US10501470B2, “Use of asarinin in preparation of medicines for treating various coughs” (priority 2017, dated 2019).

Test system: cough of guinea pigs induced by citric acid
Experiment: citric acid induced guinea pig cough model
Type: in vivo, Hartley guinea pigs
Conditions: for Cough Time (Number of Times) / Cough Incubation Period: once daily for 3 days, x±s, n=8; for Cough Time (Number of Times): cough times within 6 min after citric acid atomization; for Cough Incubation Period: within 6 min after citric acid atomization; for Antitussive Ratio: (N(blank control)-N(administration group))/N(blank control)x100%
Method: Experimental animals: 250-350 g of common level Hartley guinea pigs, including half males and half females are provided by Guangdong Medical Experimental Animal Center, wherein the number of the animal certificate is SCXK (Yue) 2008-0002.
Reagents and instruments: citric acid monohydrate (Guangzhou Chemical Reagent Factory, batch number: 20121001-2), wherein 0.8 M of citric acid solution is prepared by adding normal saline into citric acid monohydrate when in use; an animal noninvasive Buxco lung function detecting system (Buxco Company of America); an Aeroneb Pro atomizer (Aerogen (Ireland) Co., Ltd.); and a gavage needle (Guangdong Medical Experimental Animal Center).
A citric acid induced guinea pig cough model is adopted for efficacy evaluation. 112 Hartley guinea pigs are put in a 6 L plethysmograph of the animal noninvasive Buxco lung function detecting system one by one; the air velocity of a drift indicator is 2.5 L/min; 0.8 M of atomized aerosol of citric acid ultrapure aqueous solution is led for 1 min by the Aeroneb Pro atomizer; the average diameter of the atomized granules is […]; observation is carried out for 5 min; the sound of cough is recorded and amplified by an indoor microphone; sound waves are analyzed by Biosystem XA software; and computer software is used for processing sound data and recording cough situations. A trained observer observes whether a cough response exists or not, records the cough times within 6 min since atomization and selects the guinea pigs with more than 10 cough times as qualified animals for tests.
56 Hartley guinea pigs qualified by screening, including half males and half females, are randomly divided into 7 groups; 1 mL/100 g of normal saline is provided to a blank control group; a corresponding solvent (Tween-80 aqueous solution with 5% volume concentration) with equal volume is provided to a solvent group; 30 mg/kg of codeine phosphate with equal volume is provided to a positive drug group, asarinin (30 mg/kg, 60 mg/kg and 120 mg/kg of samples in embodiment 1) and total volatile oil of asarum (200 mg/kg of samples in embodiment 1) with equal volume are provided to each of administration groups; administration is carried out one time every day for successive 3 days. A citric acid atomization simulation test is carried out in the animal noninvasive Buxco lung function detecting system within 2 h after last administration (atomization conditions are described above); the cough times (N) and the cough incubation periods within 6 min are recorded; and the antitussive ratios of all the administration groups are calculated by a formula: antitussive ratio=(N(blank control)−N(administration group))/N(blank control)×100%.
The data are expressed by x±s, and a one-way analysis of variance is carried out on parameters of all the groups by IBM SPSS Statistics 19.0 software.

| Structure (SMILES) | Cough Time (Number of Times) (30 mg/kg) | Cough Incubation Period (30 mg/kg) [S] | Antitussive Ratio (30 mg/kg) [%] | Cough Time (Number of Times) (60 mg/kg) | Cough Incubation Period (60 mg/kg) [S] | Antitussive Ratio (60 mg/kg) [%] | Cough Time (Number of Times) (120 mg/kg) | Cough Incubation Period (120 mg/kg) [S] | Antitussive Ratio (120 mg/kg) [%] |
| --- | --- | --- | --- | --- | --- | --- | --- | --- | --- |
| c1cc2c(cc1C1OCC3C1CO[C@H]3c1ccc3c(c1)OCO3)OCO2 (stereo in doubt) [Asarinin, 5,5′-[(1R,3aR,4S,6aR)-tetrahydro-1H,3H-furo[3,4-c]furan-1,4-diyl]bis-1,3-Benzodioxole] | 16.3 ± 2.2 Number of Times | 98.5 ± 9.5 | 39.2 | 13.2 ± 2.1 Number of Times | 94.2 ± 13.6 | 50.7 | 12.6 ± 1.9 Number of Times | 127.3 ± 24.8 | 53.0 |
| COc1ccc2c3c1O[C@H]1[C@@H](O)C=C[C@H]4[C@@H](C2)N(C)CC[C@@]341 [Codeine Phosphate, reference compound] | 12.0 ± 2.3 Number of Times | 130.0 ± 32.4 | 55.2 | – | – | – | – | – | – |
